# Reference: the RepoRT retention time repository (doi:10.1016/j.chroma.2019.01.023)
# Counter-ions that a name gives are not always drawn.
# Test: RP, Phenomenex Kinetex C18, 150 × 2.1 mm, 1.7 µm, 30 °C, 0.3 mL/min, estimated dead time 1.1 min; A: water + 0.1% formic acid, pH 3; B: acetonitrile + 0.1% formic acid, pH 3; gradient (min/%B) 0/2 14/100 17/100 17.1/2 25/2
# Settings: stereoisomer not certain
row,SMILES,LC retention time
1,Nc1nc2c(ncn2C2OC(COP(=O)(O)O)C(O)C2O)c(=O)[nH]1 (centres undefined) [GUANOSINE MONOPHOSPHATE],1.41 min
2,Oc1ccc(O)cc1 [HYDROQUINONE],4.46 min
3,"Nc1ncnc2c1ncn2C1OC(COP(=O)(O)O)C(OP(=O)(O)O)C1O (centres undefined) [ADENOSINE 3',5'-DIPHOSPHATE]",1.36 min
4,Nc1ncnc2c1ncn2C1OC(CSCCC([NH3+])C(=O)[O-])C(O)C1O (centres undefined) [S-ADENOSYLHOMOCYSTEINE],1.97 min
5,"OCC(O)c1ccc(O)c(O)c1 (centres undefined) [3,4-DIHYDROXYPHENYLGLYCOL]",1.82 min
6,NCCc1ccc(O)c(O)c1 [DOPAMINE],1.62 min
7,CC(=O)C1CCC2C3CC=C4CC(OS(=O)(=O)O)CCC4(C)C3CCC12C (centres undefined) [PREGNENOLONE SULFATE],8.69 min
8,C=CC1=C(C)C(C=c2[nH]c(=Cc3[nH]c(C=C4NC(=O)C(C)=C4C=C)c(C)c3CCC(=O)O)c(CCC(=O)O)c2C)=NC1=O [BILIVERDIN],9.08 min
9,Nc1ncnc2c1ncn2C1CC(O)C(COP(=O)(O)O)O1 (centres undefined) [DEOXYADENOSINE MONOPHOSPHATE],1.55 min
10,O=c1[nH]c(=O)c2ncn(C3OC(COP(=O)(O)O)C(O)C3O)c2[nH]1 (centres undefined) [XANTHOSINE-MONOPHOSPHATE],1.45 min
11,Nc1ccn(C2CC(O)C(COP(=O)(O)O)O2)c(=O)n1 (centres undefined) [DEOXYCYTIDINE MONOPHOSPHATE],1.4 min
12,O=S(=O)(O)Oc1c[nH]c2ccccc12 [INDOXYL SULFATE],4.62 min

# Other lines, results leading:
row,LC retention time,SMILES
1,4.14 min,CCC(C)C(=O)C(=O)[O-] (centres undefined) [3-METHYL-2-OXOVALERATE]
2,2.37 min,"NCC(N)C(=O)O (centres undefined) [2,3-DIAMINOPROPIONATE]"
3,4.46 min,O=C(O)Cc1ccccc1O [2-HYDROXYPHENYLACETATE]
4,1.94 min,CC(O)(CC(=O)O)C(=O)O (centres undefined) [CITRAMALATE]
5,1.58 min,CCC(NC(=O)CCC([NH3+])C(=O)[O-])C(=O)NCC(=O)[O-] (centres undefined) [OPHTHALMATE]
6,9.28 min,O=C(O)c1ccc2ccccc2c1[O-] [1-HYDROXY-2-NAPHTHOATE]
7,8.62 min,CCCCCCCCCC(C)=O [2-UNDECANONE]
8,1.95 min,O=C(O)CCC(=O)O [SUCCINATE]
9,6.25 min,O=C(C=Cc1ccc(O)c(O)c1)OC(Cc1ccc(O)c(O)c1)C(=O)O (centres undefined) [ROSMARINATE]

# Test: HILIC, Merck SeQuant ZIC-pHILIC, 150 × 2.1 mm, 5 µm, 40 °C, 0.3 mL/min, estimated dead time 1.1 min; A: acetonitrile; B: water + 2.8 mM ammonium formate, pH 9; gradient (min/%B) 0/5 1/5 10/51 13/51 13.1/5 20/5
# Settings: stereoisomer not certain
row,SMILES,LC retention time
1,O=c1ccn(C2CC(O)C(COP(=O)(O)O)O2)c(=O)[nH]1 (centres undefined) [DEOXYURIDINE-MONOPHOSPHATE],8.2 min
2,Cc1cn(C2CC(O)C(COP(=O)(O)OP(=O)(O)OC3OC(CO)C(O)C(O)C3O)O2)c(=O)[nH]c1=O [DTDP-D-GLUCOSE],8.93 min
3,NC(=O)c1ccc[n+](C2OC(COP(=O)(O)OP(=O)([O-])OCC3OC(n4cnc5c(N)ncnc54)C(O)C3O)C(O)C2O)c1 (stereo not drawn) [BETA-NICOTINAMIDE ADENINE DINUCLEOTIDE],8.52 min
4,Nc1ncnc2c1ncn2C1OC(COP(=O)(O)O)C(O)C1O (centres undefined) [ADENOSINE-MONOPHOSPHATE],8.23 min
5,Oc1ccccc1O [PYROCATECHOL],8.04 min
6,Nc1ccccc1S(=O)(=O)O [ANILINE-2-SULFONATE],5.89 min
7,Nc1nc2c(ncn2C2OC(COP(=O)(O)O)C(O)C2O)c(=O)[nH]1 (centres undefined) [GUANOSINE MONOPHOSPHATE],9.41 min
8,Oc1ccc(O)cc1 [HYDROQUINONE],6.29 min
9,Nc1ncnc2c1ncn2C1OC(CSCCC([NH3+])C(=O)[O-])C(O)C1O (centres undefined) [S-ADENOSYLHOMOCYSTEINE],8.51 min
10,OCC1OC(OCC2OC(O)C(O)C(O)C2O)C(O)C(O)C1O (centres undefined) [MELIBIOSE],9.37 min
11,"OCC(O)c1ccc(O)c(O)c1 (centres undefined) [3,4-DIHYDROXYPHENYLGLYCOL]",6.22 min
12,CN1CC(=O)NC1=N [CREATININE],5.92 min
13,OCC1OC(OC2(CO)OC(CO)C(O)C2O)C(O)C(O)C1O (centres undefined) [SUCROSE],8.77 min
14,Nc1ncnc2c1ncn2C1CC(O)C(COP(=O)(O)O)O1 (centres undefined) [DEOXYADENOSINE MONOPHOSPHATE],7.95 min
15,Cc1cnc(=O)[nH]c1N [5-METHYLCYTOSINE],6.24 min
16,O=c1[nH]c(=O)c2ncn(C3OC(COP(=O)(O)O)C(O)C3O)c2[nH]1 (centres undefined) [XANTHOSINE-MONOPHOSPHATE],10.2 min
17,Nc1ccn(C2CC(O)C(COP(=O)(O)O)O2)c(=O)n1 (centres undefined) [DEOXYCYTIDINE MONOPHOSPHATE],8.61 min

# Second part, the compound after the results:
row,LC retention time,SMILES
1,1.73 min,CC=CC=CC(=O)[O-] [SORBATE]
2,6.29 min,"O=C(O)c1cc(O)ccc1[O-] [2,5-DIHYDROXYBENZOATE]"
3,8.59 min,NC(CCC(=O)NC(CS)C(=O)NCC(=O)O)C(=O)O (centres undefined) [GLUTATHIONE REDUCED]
4,5.27 min,O=C(O)C(=O)Cc1ccccc1 [PHENYLPYRUVATE]
5,5.74 min,"O=C(O)c1cccc(O)c1[O-] [2,3-DIHYDROXYBENZOATE]"
6,7.81 min,"O=C(O)Cc1ccc(O)c(O)c1 [3,4-DIHYDROXYPHENYLACETATE]"
7,2.45 min,O=C([O-])C=CC(=O)[O-] [MALEATE]
8,6.39 min,O=C(O)c1cccc([O-])c1 [3-HYDROXYBENZOATE]
9,8.57 min,"O=C(O)C(O)c1ccc(O)c(O)c1 (centres undefined) [3,4 DIHYDROXYMANDELATE]"
10,8.82 min,NC(=O)c1ncn(C2OC(COP(=O)(O)O)C(O)C2O)c1N (centres undefined) [AICAR]
11,4.83 min,O=C([O-])C(O)c1ccccc1 (centres undefined) [MANDELATE]
12,5.76 min,O=C(O)Cc1ccc(O)cc1 [P-HYDROXYPHENYLACETATE]
13,8.92 min,Nc1nc2c(ncn2C2CC(O)C(COP(=O)(O)O)O2)c(=O)[nH]1 (centres undefined) [DEOXYGUANOSINE-MONOPHOSPHATE]
14,6.9 min,COc1cc(C(O)C(=O)O)ccc1O (centres undefined) [3-METHOXY-4-HYDROXYMANDELATE]
15,9.5 min,O=C(O)C=CC(=O)O [FUMARATE]
16,5.88 min,O=C(O)Cc1cccc(O)c1 [3-HYDROXYPHENYLACETATE]
17,10.2 min,O=C(O)CC(O)(CC(=O)O)C(=O)O [CITRATE]
18,7.18 min,CCC(C)C(N)C(=O)O (centres undefined) [ISOLEUCINE]
19,8.8 min,CC(O)(CC(=O)O)C(=O)O (centres undefined) [CITRAMALATE]
20,8.32 min,CCC(NC(=O)CCC([NH3+])C(=O)[O-])C(=O)NCC(=O)[O-] (centres undefined) [OPHTHALMATE]
21,1.49 min,O=C(O)c1ccc2ccccc2c1[O-] [1-HYDROXY-2-NAPHTHOATE]
22,10.5 min,NC1C(O)OC(COS(=O)(=O)O)C(O)C1O (centres undefined) [GLUCOSAMINE 6-SULFATE]
23,7.55 min,O=C(C=Cc1ccc(O)c(O)c1)OC(Cc1ccc(O)c(O)c1)C(=O)O (centres undefined) [ROSMARINATE]
24,7.76 min,O=CNCC(=O)O [N-FORMYLGLYCINE]
25,10.5 min,NCCC(=O)NC(Cc1cnc[nH]1)C(=O)O (centres undefined) [CARNOSINE]
26,6.28 min,O=CC(O)C1OC(=O)C(O)C1O [D-GLUCURONOLACTONE]
